Measurements taken from patent US7030102B1, “Highly bioavailable coenzyme Q-10 cyclodextrin complex” (BioActives, LLC, priority 2003, dated 2006).

Columns and labels:
[1] = test system: Caco2 intestinal cell model; conditions: Totterman et al. 1997, Ono et al. 2001; cited from earlier work
Caco2 cells = test: In vitro uptake of CoQ-10 in Caco2 cells; format: in vitro ADME, human; conditions: 100 μg CoQ-10/flask, sum of reduced and oxidized forms, control = endogenous level
Protocol: The cellular uptake of the CoQ-10 from the cyclodextrin complexes was determined in vitro in model cell culture systems. For example, the uptake was determined using an in vitro Caco2 intestinal cell culture model indicative of in vivo intestinal absorption. This cell line has been used as a model system to examine the selective characteristics of intestinal absorption of compounds, such as vitamin E (Traber et al., 1990), retinol, beta lactoglobulin, palmitic acid (Puyol et al., 1995), carotenoids (Garrett et al., 1999), and polyamines (Turchanowa et al., 2001). […] CoQ-10 incorporated into mixed micelles was used for comparison.
The uptake of CoQ-10 from the cyclodextrin complex dried by different methods was compared to commercially available CoQ-10 powder (99% pure, used in hard capsules) and CoQ-10 powder incorporated into mixed micelles, simulating the digestive process.
The mixed micelles were prepared by the method of Garrett et al. (1999) using sodium taurocholate (bile salt), mono-acylglycerol, oleic acid, phosphatidyl choline, lysophosphatidylcholine, and CoQ-10 in phosphate buffered saline (PBS). The CoQ-10/cyclodextrin complexes were dispersed in PBS. The stock solutions contained 30 mg CoQ-10/10 ml.
The cellular uptake of CoQ-10 as a function of media concentration and exposure time was determined based on the method of Garrett et al. (1999). Caco-2 (ATCC, Rockville, Md.) cells were maintained in high glucose DMEM with 15 mM HEPES and 10% heat inactivated fetal bovine serum, nonessential amino acids, glutamine, and pyruvate in a humidified atmosphere at 5% CO2 and 37° C. The cells were allowed to reach confluency (5–6 days after subculture) and differentiate (14 days) in 25 cm^2 flasks before the start of the experiment.
The stock test samples were diluted in the culture medium for the experiment. The monolayers were washed with PBS before adding the test samples at known CoQ-10 concentration (100 μg/flask). […] The cultures were incubated as before and the CoQ-10 uptake was terminated at indicated times. […] The chromatograms were monitored at 275 nm.

Compound	Cytotoxicity / effect on Caco2 cells [1]	Cellular Total CoQ-10 (Treated/Control) (Caco2 cells; 5 hr incubation)	Cellular Total CoQ-10 (Treated/Control) (Caco2 cells; 10 hr incubation)	Cellular Total CoQ-10 (Treated/Control) (Caco2 cells; 24 hr incubation)
maltosyl-α-cyclodextrin	less toxic as compared to α-cyclodextrin			
COC1=C(OC)C(=O)C(C/C=C(\C)CC/C=C(\C)CC/C=C(\C)CC/C=C(\C)CC/C=C(\C)CC/C=C(\C)CC/C=C(\C)CC/C=C(\C)CC/C=C(\C)CCC=C(C)C)=C(C)C1=O [CoQ-10 Powder, Coenzyme Q-10]		1.0	1.0	1.0
dimethyl β-cyclodextrin	dose dependent cytotoxicity			
OC[C@H]1O[C@@H]2O[C@H]3[C@H](O)[C@@H](O)[C@@H](O[C@H]4[C@H](O)[C@@H](O)[C@@H](O[C@H]5[C@H](O)[C@@H](O)[C@@H](O[C@H]6[C@H](O)[C@@H](O)[C@@H](O[C@H]7[C@H](O)[C@@H](O)[C@@H](O[C@H]8[C@H](O)[C@@H](O)[C@@H](O[C@H]9[C@H](O)[C@@H](O)[C@@H](O[C@H]1[C@H](O)[C@H]2O)O[C@@H]9CO)O[C@@H]8CO)O[C@@H]7CO)O[C@@H]6CO)O[C@@H]5CO)O[C@@H]4CO)O[C@@H]3CO [γ-Cyclodextrin]	least effect even at a relatively high concentration of 150 mM			
